Here are results for 31 molecules from patent EP4682146A1, “COMPOSITION INCLUDING NOVEL PYRIDOINDOLE DERIVATIVE COMPOUND AS ACTIVE INGREDIENT FOR PREVENTION OR TREATMENT OF NEURODEGENERATIVE DISEASES” (Neurotarge Co., Ltd., priority 2023, dated 2024).

One may read the IC50 as the midpoint of a concentration-inhibition curve.

T1 sequence (P10636 1-441 isoform P10636-8): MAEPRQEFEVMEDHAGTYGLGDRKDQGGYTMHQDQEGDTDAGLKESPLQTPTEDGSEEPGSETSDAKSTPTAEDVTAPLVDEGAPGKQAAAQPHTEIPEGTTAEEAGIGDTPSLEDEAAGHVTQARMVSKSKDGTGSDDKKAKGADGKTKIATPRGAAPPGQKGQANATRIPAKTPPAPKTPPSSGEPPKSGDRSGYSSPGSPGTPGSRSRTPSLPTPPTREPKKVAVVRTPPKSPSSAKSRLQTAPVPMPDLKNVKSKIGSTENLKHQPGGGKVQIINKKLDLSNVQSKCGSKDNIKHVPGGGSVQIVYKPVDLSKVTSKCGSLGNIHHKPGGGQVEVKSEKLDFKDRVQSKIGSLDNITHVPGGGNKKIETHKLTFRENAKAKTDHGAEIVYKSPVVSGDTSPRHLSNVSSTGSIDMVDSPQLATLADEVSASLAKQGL
T1 sequence (O43761 whole entry): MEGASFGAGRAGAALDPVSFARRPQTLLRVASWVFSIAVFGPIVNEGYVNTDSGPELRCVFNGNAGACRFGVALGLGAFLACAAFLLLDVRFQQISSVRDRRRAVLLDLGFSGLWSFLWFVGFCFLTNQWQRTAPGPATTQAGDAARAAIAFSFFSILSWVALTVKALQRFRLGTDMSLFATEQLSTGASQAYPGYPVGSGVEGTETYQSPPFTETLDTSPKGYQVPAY

This assay addresses T1, Tau-Synaptogyrin3 interaction (Homo sapiens, UniProt O43761+P10636).
T1 construct: expressed in transfected cells
The assay is described as follows: Cell-based split luciferase (NanoBit) protein complementary assay for Tau-Synaptogyrin3 interaction in stable cell line HEK293T-TK252-1E2. The conditions noted are these: HEK293T-TK252-1E2 cells, 48 hrs compound treatment, L/F value (luciferase activity/fluorescent intensity) compared to DMSO control. The method, then: Live cell luciferase assay: Live cell luciferase activity was measured using NanoGlo® Live Cell Assay System (Cat# N2012. Promega, WI, USA), according to manufacturer's instruction. All microplate-based measurement was performed with BioTek Synergy H1 (Agilent. CA, USA).
For producing HEK293T-TK252 stable cell line for screening, BglII-linearized pTK252 was transfected to HEK293T cells. After 24 hrs transfection, the transfected cells were cultured in the culture media containing 1 µg/ml puromycin (10 mM in DMSO, Cat# J61278/ Alfa Aesar. ThermoFisher Korea, Seoul, Korea) for 9 days. Regular media change was performed in every 3 days with fresh puromycin of indicating concentration during the whole selection period. The selected cells were trypsinized and diluted to 5 cells/ml and seeded to 4x 96 well cell culture plates (100 µl/well), and cultured with the cell culture media containing 1 µg/ml puromycin for 11 days. 18 wells that contained only GFP-positive cells were selected for expansion, and cultured with the cell culture media containing 0.1-0.2 µg/ml puromycin for 14 days. 10 clones were discarded during the expansion due to emerging of non-GFP cells, and 8 clones were validated. The selected clone (1E2) was cultured with the cell culture media containing 0.5 µg/ml puromycin for further experiments.
3 µmol of 1,728 compounds were purchased from Otava Chemicals MB (Vilniaus, Lithuania), dissolved into 300 µl DMSO (10 mM) and stored at -80°C. 4x10^4 HEK293T-TK252-1E2 cells were seeded with 100 µl of the cell culture media into 96 white well cell culture plates (Cat# 30196. SPL, Seoul, Korea), 48 hrs prior to compound treatment. For 10 µM compound treatment, 10 mM compound stock was diluted to 50 µM with the cell culture media, and 25 µl of the diluted compound was added to the designated wells of the 96 well plates. For dose-response experiments, the amount of compounds for dilution was adjusted to fit the volume indicated above. After 48 hrs compound treatment, the cells were washed once with OptiMEM and live cell luciferase activity, fluorescent intensity and fluorescence area scan was measured.
1,728 compounds were treated at 10 µM to HEK293T-TK252-1E2 cells and incubated for 48 hrs. […] Single wash step with culture media without FBS was included before measurement to discard dead cells and to remove FBS that affects luciferase assay. […] Fluorescent intensity was taken for normalization, which is expected to be proportion to the cell number at the measuring point. L/F value which is luciferase activity normalized with fluorescent intensity (L/F = Luciferase activity/ Fluorescent intensity) was calculated for all measurements and compared to L/F value of DMSO controls to calculated the size of inhibitory effect. […] Fluorescence area scan (FA) performed right after luciferase activity and fluorescent intensity measurement, to validate total remaining fluorescent cells in a well as a proxy to the cellular toxicity. FA value was in proportion to WST assay results (data not shown), and average CV of triplicates of all measurements was 0.04.
61 compounds were further tested for dose-response profile, based on inhibitory effect that was measured by L/F value (<60%) and FA-based cell viability (>90%) at 10 µM compared to DMSO control. 10 compounds were considered as hit compounds through three times of reproduction.
Turning to `COc1ccc(-c2ccc3[nH]c4c(c3c2)CN(C(=O)c2cccnc2)CC4)cc1` [Formula 63, (8-(4-Methoxyphenyl)-1,3,4,5-tetrahydro-2H-pyrido[4,3-b]indol-2-yl)(pyridin-3-yl)methanone], the IC50 is below 3 µM. `Cn1ccc2c(C(=O)N3CCc4[nH]c5ccc(-c6ccccc6)cc5c4C3)cccc21` [Formula 10, (1-methyl-1H-indol-4-yl)(8-phenyl-1,3,4,5-tetrahydro-2H-pyrido[4,3-b]indol-2-yl)methanone]: the IC50 was 3 to 12 µM. For the molecule `Cc1ccc(C(=O)N2CCc3[nH]c4ccc(-c5ccc(C)nc5)cc4c3C2)cn1` [Formula 49, (6-methylpyridin-3-yl)(8-(6-methylpyridin-3-yl)-1,3,4,5-tetrahydro-2H-pyrido[4,3-b]indol-2-yl)methanone], the IC50 fell in the range of 12 to 25 µM.

Regarding `Cc1ccc(-c2ccc3[nH]c4c(c3c2)CN(C(=O)c2cccnc2)CC4)cn1` [Formula 48, (8-(6-methylpyridin-3-yl)-1,3,4,5-tetrahydro-2H-pyrido[4,3-b]indol-2-yl)(pyridin-3-yl)methanone], the IC50 fell in the range of 12 to 25 µM. As for `Cc1ccccc1-c1ccc2[nH]c3c(c2c1)CN(C(=O)c1ccncc1)CC3` [Formula 21, Pyridin-4-yl(8-(o-tolyl)-1,3,4,5-tetrahydro-2H-pyrido[4,3-b]indol-2-yl)methanone], the figure is 3 to 12 µM; as for `Cc1ccc(NC(=S)N2CCc3[nH]c4ccc(-c5ccc(C)cc5)cc4c3C2)cc1` [Formula 76, N,8-di-p-tolyl-1,3,4,5-tetrahydro-2H-pyrido[4,3-b]indole-2-carbothioamide], 3 to 12 µM.

Consider `Cc1cccc(C(=O)N2CCc3[nH]c4ccc(-c5ccccc5)cc4c3C2)c1` [Formula 15, (8-phenyl-1,3,4,5-tetrahydro-2H-pyrido[4,3-b]indol-2-yl)(m-tolyl)methanone], for which the IC50 was 3 to 12 µM. Regarding `O=S(=O)(c1cccnc1)N1CCc2[nH]c3cc(-c4ccccc4)ccc3c2C1` [Formula 34, 7-phenyl-2-(pyridin-3-ylsulfonyl)-2,3,4,5-tetrahydro-1H-pyrido[4,3-b]indole], the 50% inhibitory concentration (IC50) lay in the range of 3 to 12 µM.

For the molecule `CCc1ccc(C(=O)N2CCc3[nH]c4ccc(-c5ccccc5)cc4c3C2)cc1` [Formula 16, (4-ethylphenyl)(8-phenyl-1,3,4,5-tetrahydro-2H-pyrido[4,3-b]indol-2-yl)methanone], the IC50 fell in the range of 3 to 12 µM. Consider `O=C(c1cccnc1)N1CCc2[nH]c3ccc(-c4cccnc4)cc3c2C1` [Formula 31, Pyridin-3-yl(8-(pyridin-3-yl)-1,3,4,5-tetrahydro-2H-pyrido[4,3-b]indol-2-yl)methanone], for which the half-maximal inhibitory concentration (IC50) fell in the range of 12 to 25 µM.

Regarding `Cc1ccc(C(=O)N2CCc3[nH]c4ccc(-c5cccc(C#N)c5)cc4c3C2)cc1` [Formula 56, 3-(2-(4-Methylbenzoyl)-2,3,4,5-tetrahydro-1H-pyrido[4,3-b]indol-8-yl)benzonitrile], the IC50 fell in the range of 3 to 12 µM. As to `O=C(c1ccccc1)N1CCc2[nH]c3ccc(-c4ccc([N+](=O)[O-])cc4)cc3c2C1` [Formula 71, (8-(4-nitrophenyl)-1,3,4,5-tetrahydro-2H-pyrido[4,3-b]indol-2-yl)(phenyl)methanone], the IC50 is below 3 µM. In the case of `O=C(c1cccnc1)N1CCc2[nH]c3ccc(Nc4ccc(Cl)cc4)cc3c2C1` [Formula 32, (8-((4-chlorophenyl)amino)-1,3,4,5-tetrahydro-2H-pyrido[4,3-b]indol-2-yl)(pyridin-3-yl)methanone], the IC50 was below 3 µM. As for `O=C(N1CCOCC1)N1CCc2[nH]c3ccc(-c4ccccc4)cc3c2C1` [Formula 19, Morpholino(8-phenyl-1,3,4,5-tetrahydro-2H-pyrido[4,3-b]indol-2-yl)methanone], the 50% inhibitory concentration (IC50) lay within 3 to 12 µM. The same measure for `Cc1ccc2[nH]c3c(c2c1)CN(C(=O)c1ccccc1)CC3` [Formula 68, (8-methyl-1,3,4,5-tetrahydro-2H-pyrido[4,3-b]indol-2-yl)(phenyl)methanone]: 3 to 12 µM. On to `O=C(c1ccc(C(F)(F)F)cc1)N1CCc2[nH]c3ccc(-c4ccccc4)cc3c2C1` [Formula 12, (8-phenyl-1,3,4,5-tetrahydro-2H-pyrido[4,3-b]indol-2-yl)(4-(trifluoromethyl)phenyl)methanone], for which the IC50 fell in the range of 12 to 25 µM. As for `Cc1cccc(-c2ccc3[nH]c4c(c3c2)CN(C(=O)c2cccnc2)CC4)c1` [Formula 27, Pyridin-3-yl(8-(m-tolyl)-1,3,4,5-tetrahydro-2H-pyrido[4,3-b]indol-2-yl)methanone], the figure is below 3 µM.

With `Cc1ccc(-c2ccc3[nH]c4c(c3c2)CN(C(=O)c2ccccc2)CC4)cc1` [Formula 30, Phenyl(8-(p-tolyl)-1,3,4,5-tetrahydro-2H-pyrido[4,3-b]indol-2-yl)methanone], the IC50 is below 3 µM.

For `Cc1ccc(-c2ccc3[nH]c4c(c3c2)CN(C(=O)c2ccc(N(C)C)cc2)CC4)cc1` [Formula 69, (4-(Dimethylamino)phenyl)(8-(p-tolyl)-1,3,4,5-tetrahydro-2H-pyrido[4,3-b]indol-2-yl)methanone], the IC50 lay within 3 to 12 µM. For the molecule `COc1cccc(C(=O)N2CCc3[nH]c4ccc(-c5ccccc5)cc4c3C2)c1` [Formula 18, (3-methoxyphenyl)(8-phenyl-1,3,4,5-tetrahydro-2H-pyrido[4,3-b]indol-2-yl)methanone], the IC50 was in the range of 3 to 12 µM. For the molecule `N#Cc1ccc(-c2ccc3[nH]c4c(c3c2)CN(C(=O)c2cccc(C#N)c2)CC4)cc1` [Formula 55], the IC50 lay in the range of 12 to 25 µM.

For the molecule `O=C(c1cccc(Cl)c1)N1CCc2[nH]c3ccc(-c4ccccc4)cc3c2C1` [Formula 13, (3-chlorophenyl)(8-phenyl-1,3,4,5-tetrahydro-2H-pyrido[4,3-b]indol-2-yl)methanone], the IC50 was in the range of 12 to 25 µM.

Turning to `Cc1ccc(-c2ccc3[nH]c4c(c3c2)CN(C(=O)C2CCCCC2)CC4)cc1` [Formula 36, Cyclohexyl(8-(p-tolyl)-1,3,4,5-tetrahydro-2H-pyrido[4,3-b]indol-2-yl)methanone], the IC50 is 3 to 12 µM. With `Cc1ccccc1-c1ccc2[nH]c3c(c2c1)CN(C(=O)c1cccc(Cl)c1)CC3` [Formula 26, (3-chlorophenyl)(8-(o-tolyl)-1,3,4,5-tetrahydro-2H-pyrido[4,3-b]indol-2-yl)methanone], the half-inhibitory concentration (IC50) is 12 to 25 µM. As to `CCn1c2c(c3cc(-c4ccc(C)cc4)ccc31)CN(C(=O)c1cccnc1)CC2` [Formula 46, (5-ethyl-8-(p-tolyl)-1,3,4,5-tetrahydro-2H-pyrido[4,3-b]indol-2-yl)(pyridin-3-yl)methanone], the IC50 is 3 to 12 µM. On to `Cc1ccc(-c2ccc3[nH]c4c(c3c2)CN(C(=O)c2ccccc2)CC4)cn1` [Formula 47, (8-(6-methylpyridin-3-yl)-1,3,4,5-tetrahydro-2H-pyrido[4,3-b]indol-2-yl)(phenyl)methanone], for which the IC50 is 3 to 12 µM.

With `Cc1ccc(-c2ccc3[nH]c4c(c3c2)CN(C(=O)Nc2ccccc2)CC4)cc1` [Formula 75, N-phenyl-8-(p-tolyl)-1,3,4,5-tetrahydro-2H-pyrido[4,3-b]indole-2-carboxamide], the IC50 lay within 12 to 25 µM.

With `O=C(c1cncnc1)N1CCc2[nH]c3ccc(-c4ccccc4)cc3c2C1` [Formula 8, (8-phenyl-1,3,4,5-tetrahydro-2H-pyrido[4,3-b]indol-2-yl)(pyrimidin-5-yl)methanone], the IC50 fell in the range of 3 to 12 µM. For the molecule `Cc1ccccc1-c1ccc2[nH]c3c(c2c1)CN(C(=O)c1nccs1)CC3` [Formula 25, Thiazol-2-yl(8-(o-tolyl)-1,3,4,5-tetrahydro-2H-pyrido[4,3-b]indol-2-yl)methanone], the IC50 lay in the range of 3 to 12 µM. The same measure for `COc1ccc(-c2ccc3[nH]c4c(c3c2)CN(C(=O)c2ccccc2)CC4)cc1` [Formula 62, (8-(4-Methoxyphenyl)-1,3,4,5-tetrahydro-2H-pyrido[4,3-b]indol-2-yl)(phenyl)methanone]: 3 to 12 µM; for `N#Cc1ccc(-c2ccc3[nH]c4c(c3c2)CN(C(=O)c2cccnc2)CC4)cc1` [Formula 51]: 3 to 12 µM.
